Data taken from US20260345619A1 (Principia Biopharma Inc., priority 2023, published 2026).

Legend:
[1] = Time to LOAC post-randomization (Cox regression, Kaplan-Meier); format: in vivo, human
Excerpt: Time to LOAC post-randomization was to be analyzed using a Cox regression model with treatment (Cox 1972), baseline IgE strata, and region (pooled country) as covariates. The Kaplan-Meier (KM) method was to be used to estimate the probabilities of the event at specific time points for each treatment group (Kaplan and Meier 1958). Nominal p-value from log-rank test stratified by baseline IgE strata and region was also to be provided.

[2] = Asthma Daytime Symptom Diary (ADSD) score; format: in vivo, human; conditions: for LS mean difference versus placebo, ADSD symptom score: Week 12
Excerpt: (§1) ADSD and ANSD are PRO measures developed by the PRO Consortium′ Asthma Working Group. Both instruments have been designed to measure asthma symptoms in adult and adolescent (12 years of age and older) patients diagnosed with mild to severe asthma. ADSD and ANSD assess asthma severity based on patient self-report of asthma core symptoms.
(§2) Other efficacy endpoints included: • Change from baseline in pre- and post-bronchodilator FEV1 and other lung function measurement (peak expiratory flow (PEF), forced vital capacity (FVC), forced expiratory flow (FEF) 25-75%) at each spirometry endpoint. • Asthma Control Questionnaire-5 (ACQ-5) score change from baseline at EOT and at each assessment time point. • Asthma Quality of Life Questionnaire with Standardized Activities (AQLQ(S)) Self-Administered score change from baseline at EOT and at each assessment time point. • Change from baseline at EOT and change from baseline at each week for asthma symptom scores in the morning and evening (ADSD and ANSD). Questionnaire was to be administered daily and score averaged weekly for analysis. • Change from baseline at EOT and change from baseline at each week in number of inhalations/day of albuterol or levalbuterol for symptom relief.
(§3) The ADSD and ANSD are PRO measures developed by the PRO Consortium′ Asthma Working Group. Both instruments have been designed to measure asthma symptoms in adult and adolescent (12 years of age and older) patients diagnosed with mild to severe asthma. ADSD and ANSD assess asthma severity based on patient self-report of asthma core symptoms, i.e., difficulty of breathing; wheezing; shortness of breath; chest tightness; chest pain; and cough. Patients were asked to complete the ADSD every night before they went to bed, thinking about their asthma symptoms on that day, from when they got up this morning until then; the ANSD when getting up, thinking about their asthma symptoms from the previous night from when they went to bed until then.
(§4) Both the ADSD and ANSD are composed of 6 items rated using an 11-point NRS that ranges from 0=None to 10=As bad as you can imagine (Gater et al. 2016). The participants were to record their daytime and nighttime asthma symptoms in an electronic diary, once in the evening and once in the morning, respectively. The participants were to complete the ADSD and the ANSD.

[3] = ITP, cited from earlier work
other TEC family members = conditions: preclinical assays; cited from earlier work
[4] = humans, oral; cited from earlier work
[5] = Asthma Nighttime Symptom Diary (ANSD) score; format: in vivo, human; conditions: for LS mean difference versus placebo, ANSD symptom score: Week 12
Excerpt: as §1, §2, §3, §4

[6] = read-out: IC50 for RLK; cited from earlier work
[7] = molecular target: tyrosine protein kinase TEC; conditions: cited from earlier work
[8] = test system: bone marrow tyrosine kinase on chromosome X (BMX); conditions: cited from earlier work
[9] = 400 mg BID cohort, N = 32, mITT
[10] = 400 mg TID cohort, N = 64, mITT
[11] = both cohorts, Week 12, all components

CC(C)(C=C(C#N)C(=O)N1CCC[C@@H](n2nc(-c3ccc(Oc4ccccc4)cc3F)c3c(N)ncnc32)C1)N1CCN(C2COC2)CC1 (mixture of isomers) [rilzabrutinib, (R)-2-[3-[4-amino-3-(2-fluoro-4-phenoxy-phenyl)pyrazolo[3,4-d]pyrimidin-1-yl]piperidine-1-carbonyl]-4-methyl-4-[4-(oxetan-3-yl)piperazin-1-yl]pent-2-enenitrile]
Number of participants censored [1, 9]: 20 | Number of participants with LOAC (time-to-LOAC analysis) [1, 9]: 12 | Percentage of participants censored [1, 9]: (62.5) | Percentage of participants with LOAC (time-to-LOAC analysis) [1, 9]: (37.5) | Probability of LOAC at Week 4 ([1]; 400 mg BID cohort, mITT, 95% CI (0.059, 0.309)): 0.161 | Probability of LOAC at Week 9 ([1]; 400 mg BID cohort, mITT, 95% CI (0.125, 0.429)): 0.265 | Probability of LOAC at Week 12 ([1]; 400 mg BID cohort, mITT, 95% CI (0.243, 0.607)): 0.432 | HR vs. placebo, time to LOAC ([1]; 400 mg BID cohort, mITT, 95% CI (0.352, 1.595)): 0.750 | Q1 of time to LOAC ([1]; 400 mg BID cohort, mITT, 95% CI (19.0, 84.0)): 55.0 days | Number of participants censored [1, 10]: 52 | Number of participants with LOAC (time-to-LOAC analysis) [1, 10]: 12 | Percentage of participants censored [1, 10]: (81.3) | Percentage of participants with LOAC (time-to-LOAC analysis) [1, 10]: (18.8) | Probability of LOAC at Week 4 ([1]; 400 mg TID cohort, mITT, 95% CI (0.001, 0.080)): 0.017 | Probability of LOAC at Week 9 ([1]; 400 mg TID cohort, mITT, 95% CI (0.077, 0.261)): 0.156 | Probability of LOAC at Week 12 ([1]; 400 mg TID cohort, mITT, 95% CI (0.117, 0.325)): 0.211 | HR vs. placebo, time to LOAC ([1]; 400 mg TID cohort, mITT, 95% CI (0.327, 1.408)): 0.679 | LS mean ADSD change from baseline at Week 12 ([2]; 400 mg BID): −0.27 | LS mean difference versus placebo, ADSD symptom score ([2]; 400 mg BID, 95% CI −1.03, 0.26, nominal p=0.2377): −0.39 | LS mean ADSD change from baseline at Week 12 ([2]; 400 mg TID): −0.43 | LS mean difference versus placebo, ADSD symptom score ([2]; 400 mg TID, 95% CI −1.15, 0.14, nominal p=0.1276): −0.50 | ADSD symptom score (in words) [2, 11]: improvement in ADSD and ANSD symptom score | treatment-emergent serious adverse events (TESAEs) ([3]; Phase 1/2): no treatment-emergent serious adverse events (TESAEs) observed | participants achieving the primary response endpoint ([3]; treatment for at least 12 weeks): 50% | binding to other TEC family members over time (other TEC family members): decayed rapidly over time | absorption [4]: rapidly absorbed | half-life [4]: 3 to 4 h | pharmacokinetic variability [4]: variable pharmacokinetics | LS mean ANSD change from baseline at Week 12 ([5]; 400 mg BID): −0.35 | LS mean difference versus placebo, ANSD symptom score ([5]; 400 mg BID, 95% CI −1.33, −0.03, nominal p=0.0390): −0.68 | LS mean ANSD change from baseline at Week 12 ([5]; 400 mg TID): −0.48 | LS mean difference versus placebo, ANSD symptom score ([5]; 400 mg TID, 95% CI −1.13, 0.06, nominal p=0.0758): −0.54 | ANSD symptom score (in words) [5, 11]: improvement in ADSD and ANSD symptom score | IC50 [6]: 1.2 nM | IC50 [7]: 0.8 nM | IC50 [8]: 1 nM
